Molecules are shown by their SMILES.

In the first test the target is T1, human capsaicin receptor (Homo sapiens, UniProt Q8NER1).
T1 construct: pBK-CMV expression construct encoding the full length human capsaicin receptor; expressed in transfected cells
T1 sequence (Q8NER1 whole entry): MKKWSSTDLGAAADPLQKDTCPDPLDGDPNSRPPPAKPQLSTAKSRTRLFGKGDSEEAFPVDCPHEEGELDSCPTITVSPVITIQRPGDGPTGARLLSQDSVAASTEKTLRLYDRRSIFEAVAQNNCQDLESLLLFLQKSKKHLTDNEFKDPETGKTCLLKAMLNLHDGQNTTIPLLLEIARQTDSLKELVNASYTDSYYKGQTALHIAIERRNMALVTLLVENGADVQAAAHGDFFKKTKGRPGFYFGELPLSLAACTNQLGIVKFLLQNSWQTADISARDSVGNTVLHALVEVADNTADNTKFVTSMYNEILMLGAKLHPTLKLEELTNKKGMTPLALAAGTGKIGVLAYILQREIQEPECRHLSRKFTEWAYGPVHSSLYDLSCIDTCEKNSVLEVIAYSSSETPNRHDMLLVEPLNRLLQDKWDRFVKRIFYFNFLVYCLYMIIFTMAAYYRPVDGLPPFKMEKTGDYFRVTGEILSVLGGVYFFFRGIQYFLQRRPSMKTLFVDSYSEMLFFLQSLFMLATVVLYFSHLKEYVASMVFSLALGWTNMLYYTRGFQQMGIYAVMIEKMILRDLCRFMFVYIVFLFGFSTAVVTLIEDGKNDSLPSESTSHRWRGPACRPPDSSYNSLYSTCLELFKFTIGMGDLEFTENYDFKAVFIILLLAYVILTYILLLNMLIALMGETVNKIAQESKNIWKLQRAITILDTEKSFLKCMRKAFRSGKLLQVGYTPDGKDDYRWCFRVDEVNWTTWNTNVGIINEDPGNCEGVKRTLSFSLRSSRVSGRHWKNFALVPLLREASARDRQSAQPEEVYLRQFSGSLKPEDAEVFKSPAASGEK
The experiment in a line: Calcium mobilization assay, determination of antagonist activity (Example 6). Type of test: cell-based. The note with it: Table II; IC50 determined as described in Example 6. The essentials:
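HEK293 clonal lines stably expressing full-length human capsaicin receptor, loaded with Fluo-3 AM in KRH buffer pH 7.4, 1–2 h at 37 °C. Compounds (1–5 μM final) preincubated 0.5–6 h at room temperature, then capsaicin at its EC50 added. FLIPR/Fluoroskan calcium signal; IC50 as 50% decrease of capsaicin response.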
For the compound `C[C@@H]1CN(c2ncccc2Cl)CCN1c1cc(-c2ccc(Cl)cc2)nc(N2CCOCC2)n1` [Example 485, 4-{4-(4-chlorophenyl)-6-[(2R)-4-(3-chloropyridin-2-yl)-2-methylpiperazin-1-yl]pyrimidin-2-yl}morpholine], the IC50 was ≤ 1 µM. For the compound `CCCc1ccc(-c2cc(N3CCN(c4ncccc4C#N)C[C@H]3C)nc(N3CCOCC3)n2)cc1` [Example 512, 2-{(3R)-3-methyl-4-[2-morpholin-4-yl-6-(4-propylphenyl)pyrimidin-4-yl]piperazin-1-yl}nicotinonitrile], the IC50 was ≤ 1 µM. In the case of `Cc1cccnc1N1CCN(c2cc(-c3ccc4ccccc4c3)nc(N3CCOCC3)n2)[C@H](C)C1` [Example 490, 4-[4-[(2R)-2-methyl-4-(3-methylpyridin-2-yl)piperazin-1-yl]-6-(2-naphthyl)pyrimidin-2-yl]morpholine], the IC50 was ≤ 1 µM. On the same count and under the same terms, for `C[C@@H]1CN(c2ncccc2Cl)CCN1c1cc(-c2ccccc2)nc(N2CCOCC2)n1` [Example 479, 4-{4-[(2R)-4-(3-chloropyridin-2-yl)-2-methylpiperazin-1-yl]-6-phenylpyrimidin-2-yl}morpholine] the value was ≤ 1 µM.

As to `C[C@@H]1CN(c2ncccc2C#N)CCN1c1cc(-c2ccc(C(C)(C)C)cc2)nc(N2CCOCC2)n1` [Example 518, 2-{(3R)-4-[6-(4-tert-butylphenyl)-2-morpholin-4-ylpyrimidin-4-yl]-3-methylpiperazin-1-yl}nicotinonitrile], the IC50 was ≤ 1 µM. With `CCOc1cccc(-c2cc(N3CCN(c4ncccc4C)C[C@H]3C)nc(N3CCOCC3)n2)c1` [Example 529, 4-{4-(3-ethoxyphenyl)-6-[(2R)-2-methyl-4-(3-methylpyridin-2-yl)piperazin-1-yl]pyrimidin-2-yl}morpholine], the IC50 was ≤ 1 µM.

Staying with this test, now noted: Table II; determined as described in Example 6 (antagonist activity); "*" = 1 micromolar or less.
With `CC1CCCN1c1nc(-c2ccc(F)c(Cl)c2)cc(N2CCN(c3ncc(C(=O)N(C)C)cc3Cl)CC2)n1` (stereo not drawn) [Example 824, 5-chloro-6-{4-[6-(3-chloro-4-fluorophenyl)-2-(2-methylpyrrolidin-1-yl)pyrimidin-4-yl]piperazin-1-yl}-N,N-dimethylnicotinamide], the IC50 is ≤ 1 µM. On to `CC1CCCN1c1nc(-c2ccc(F)c(Cl)c2)cc(N2CCN(c3ncc(Cl)cc3Cl)C[C@H]2C)n1` (stereo in doubt) [Example 954, 4-(3-chloro-4-fluorophenyl)-6-[4-(3,5-dichloropyridin-2-yl)-2-methylpiperazin-1-yl]-2-(2-methylpyrrolidin-1-yl)pyrimidine], for which the IC50 is ≤ 1 µM. On the same count and under the same terms, for `CC1CCCN1c1nc(-c2ccc3c(c2)CN(C)CC3(C)C)cc(N2CCN(c3ncccc3C(F)(F)F)CC2)n1` (stereo not drawn) [Example 836, 2,4,4-trimethyl-7-(2-(2-methylpyrrolidin-1-yl)-6-{4-[3-(trifluoromethyl)pyridin-2-yl]piperazin-1-yl}pyrimidin-4-yl)-1,2,3,4-tetrahydroisoquinoline] the value was ≤ 1 µM; for `CC1CCCN1c1nc(-c2ccc(F)c(F)c2)cc(N2CCN(c3ncccc3C(F)(F)F)C[C@H]2C)n1` (stereo partly drawn) [Example 792, 4-(3,4-difluorophenyl)-2-(2-methylpyrrolidin-1-yl)-6-{(2R)-2-methyl-4-[3-(trifluoromethyl)pyridin-2-yl]piperazin-1-yl}pyrimidine], ≤ 1 µM.

Turning to `COc1ncc(Cl)c(N2CCN(c3nc(-c4ccc(F)cc4)cc(N4CCC[C@H]4C)n3)[C@H](C)C2)n1` [Example 968, 5-chloro-4-((3R)-4-{4-(4-fluorophenyl)-6-[(2R)-2-methylpyrrolidin-1-yl]pyrimidin-2-yl}-3-methylpiperazin-1-yl)-2-methoxypyrimidine], the IC50 was ≤ 1 µM.

The test is the same for the next values; noted with them: Table II; determined as described in Example 6; class symbol.
For the compound `Cc1cc(C)cc(-c2nc(N3CCOCC3)nc(N3CCN(c4ccccn4)CC3)n2)c1` [Example 236, 2-(3,5-dimethylphenyl)-4-morpholin-4-yl-6-(4-pyridin-2-ylpiperazin-1-yl)-1,3,5-triazine], the IC50 is ≤ 1 µM.

The values are drawn from patent US7566712B2, “Biaryl piperazinyl-pyridine analogues” (Neurogen Corporation, priority 2003, dated 2009).
